{"source": "patent US10091997B2", "about": "“Composition for inhibition of insect host sensing” (Vanderbilt University, priority 2010, dated 2018)", "key": {"AgORco+AgOR10 [1]": {"tested_on": "AgORco+AgOR10", "experiment": "plate-based Fluo-4 Ca2+ imaging in stable HEK293 cell lines", "parameters": "species or system Anopheles gambiae", "conditions": "AgORco+AgOR10 HEK293 cells; not seen in control cells", "excerpt": "(§1) For transient transfections, ORs were cloned into pCI (Promega) and transfected into Flp-In™ T-REx™293 cell lines (Invitrogen) with Fu GENE6 (Roche). For the creation of stable cell lines, a cell culture expression vector capable of expressing AgORco in conjunction with a conventional OR, pcDNA5/FRT/TO (Invitrogen) was modified to create two individual expression cassettes each under the control of a separate CMV/TetO2 promoter and a BGH poly-adenylation signal. Cells (as above) were transfected with the modified pcDNA5 plasmid along with POG44 (a Flp recombinase expression plasmid) to facilitate site-specific recombination. Stable cell lines were selected using Hygromycin B (Invitrogen). Cells were maintained in DMEM (Invitrogen) supplemented with 10% Tetracycline-free FBS (HyClone) and 15 μg/ml Blasticidin. For fluorometric Ca^2+ measurements, stable lines expressing ORs of interest were seeded at 20,000 cells/well in black wall, poly-lysine coated 384-well cell culture plates (Greiner) and treated with 0.3 μg/μl tetracycline (Sigma) overnight to induce OR expression. Cells were dye-loaded with 1.8 μM Fluo-4 AM (Molecular Probes), 2.5 mM Probenecid (Molecular Probes) in assay buffer (20 mM HEPES, 1×HBSS) for 45 minutes at 37° C. in 5% CO2 prior to each assay. […] Baseline readings were taken for 20 s before automated addition of compound previously diluted in DMSO and assay buffer. […]"}, "AgORco+AgOR10 [2]": {"tested_on": "AgORco+AgOR10", "experiment": "whole-cell patch clamp, HEK293 cells expressing AgORco+AgOR10", "assay_type": "cell-based, Anopheles gambiae", "conditions": "AgORco+AgOR10 cells", "description": "Currents from OR-expressing HEK293 cells were amplified with an Axopatch 200b Amplifier (Axon Instruments) and digitized through a Digidata 1322A (Axon Instruments). Electrophysiological data was recorded and analyzed using pCLAMP 10 (Axon Instruments). Electrodes were fabricated from quartz tubing (Sutter Instruments) and pulled to 4-6 MΩ for whole cell recording. Electrodes were filled with internal solution (120 mM KCl, 30 mM D-glucose, 10 mM HEPES, 2 mM MgCl2, 1.1 mM EGTA, and 0.1 CaCl2 (pH 7.35, 280 mOsm). External (bath) solution contained 130 mM NaCl, 34 mM D-glucose, 10 mM HEPES, 1.5 mM CaCl2, 1.3 mM KH2PO4, and 0.5 MgSO4 (pH 7.35, 300 mOsm). Compounds were diluted in external solution and locally perfused to the recording cell using Perfusion Pencil (Automate Scientific) and controlled by a ValveLink 8.2 controller (Automate Scientific). Whole cell recordings were sampled at 10 kHz and filtered at 5 kHz. Outside-out patches were obtained using 10-15MΩ electrodes pulled from standard glass capillaries (World Precision Instruments) and fire-polished with an MF-830 micro forge (Narishige). Single channel recordings were sampled at 20 kHz. Recordings were reduced to 1 kHz and low-pass filtered at 500 Hz for display and analysis using QuB (SUNY at Buffalo).\nTo test the hypothesis that VUAA1 directly agonized AgORco, whole-cell patch clamp responses were examined in AgORco+AgOR10 expressing cells as well HEK293 cells stably expressing AgORco alone. […] The VUAA1-dependent currents in AgORco+AgOR10 cells resembled those resulting from application of benzaldehyde, an orthosteric agonist of AgOR10 (FIG. 3C) (Wang, 2010; Carey, 2010). AgORco+AgOR10 cells were more sensitive to VUAA1 than AgORco cells, producing inward currents at −5.0 log M, a concentration at which AgORco had no response. […] To investigate the specificity of VUAA1 agonism, the inventors transiently transfected HEK cells with the AgORco orthologs of Drosophila melanogaster and Heliothis virescens, DmOR83b and HvOR2 respectively."}, "DmOR83b": {"biological_target": "T1, DmOR83b (Drosophila melanogaster, UniProt Q9VNB5)", "T1 construct": "expressed in transfected cells; host or cells: Flp-In T-REx 293 (HEK), transient, pCI vector, GFP co-transfected", "T1 sequence (Q9VNB5 1-486)": "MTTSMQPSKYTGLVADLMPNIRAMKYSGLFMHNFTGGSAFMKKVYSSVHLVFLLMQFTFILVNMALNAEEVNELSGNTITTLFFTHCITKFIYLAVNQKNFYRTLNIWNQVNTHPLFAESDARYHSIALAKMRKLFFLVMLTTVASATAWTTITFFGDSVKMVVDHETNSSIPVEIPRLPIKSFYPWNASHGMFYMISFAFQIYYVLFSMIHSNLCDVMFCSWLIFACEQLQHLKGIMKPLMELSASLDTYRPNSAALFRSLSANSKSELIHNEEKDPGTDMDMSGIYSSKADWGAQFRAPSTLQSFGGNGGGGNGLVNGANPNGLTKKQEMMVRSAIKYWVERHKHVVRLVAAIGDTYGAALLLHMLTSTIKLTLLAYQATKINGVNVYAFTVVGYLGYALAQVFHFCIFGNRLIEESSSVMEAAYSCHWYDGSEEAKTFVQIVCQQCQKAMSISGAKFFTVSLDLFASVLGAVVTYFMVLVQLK", "experiment": "whole-cell patch clamp, HEK cells transiently transfected with DmOR83b", "assay_type": "cell-based", "conditions": "HEK cells expressing DmOR83b, −60 mV", "excerpt": "as §1, with “Blasticidin.” for “Blasticidin. For fluorometric Ca^2+ measurements, stable lines expressing ORs of interest were seeded at 20,000 cells/well in black wall, poly-lysine coated 384-well cell culture plates (Greiner) and treated with 0.3 μg/μl tetracycline (Sigma) overnight to induce OR expression. Cells were dye-loaded with 1.8 μM Fluo-4 AM (Molecular Probes), 2.5 mM Probenecid (Molecular Probes) in assay buffer (20 mM HEPES, 1×HBSS) for 45 minutes at 37° C. in 5% CO2 prior to each assay.”\n(§2) Currents from OR-expressing HEK293 cells were amplified with an Axopatch 200b Amplifier (Axon Instruments) and digitized through a Digidata 1322A (Axon Instruments). Electrophysiological data was recorded and analyzed using pCLAMP 10 (Axon Instruments). […]"}, "HvOR2": {"tested_on": "HvOR2", "experiment": "whole-cell patch clamp, HEK cells transiently transfected with HvOR2", "assay_type": "cell-based, Heliothis virescens", "conditions": "HEK cells expressing HvOR2, −60 mV", "excerpt": "as §1, with “Blasticidin.” for “Blasticidin. For fluorometric Ca^2+ measurements, stable lines expressing ORs of interest were seeded at 20,000 cells/well in black wall, poly-lysine coated 384-well cell culture plates (Greiner) and treated with 0.3 μg/μl tetracycline (Sigma) overnight to induce OR expression. Cells were dye-loaded with 1.8 μM Fluo-4 AM (Molecular Probes), 2.5 mM Probenecid (Molecular Probes) in assay buffer (20 mM HEPES, 1×HBSS) for 45 minutes at 37° C. in 5% CO2 prior to each assay.”\nas §2"}, "[3]": {"biological_target": "T2, rat transient receptor potential vanilloid 1 (rTRPV1) (Rattus norvegicus, UniProt O35433)", "T2 construct": "expressed in transfected cells", "T2 sequence (O35433 whole entry)": "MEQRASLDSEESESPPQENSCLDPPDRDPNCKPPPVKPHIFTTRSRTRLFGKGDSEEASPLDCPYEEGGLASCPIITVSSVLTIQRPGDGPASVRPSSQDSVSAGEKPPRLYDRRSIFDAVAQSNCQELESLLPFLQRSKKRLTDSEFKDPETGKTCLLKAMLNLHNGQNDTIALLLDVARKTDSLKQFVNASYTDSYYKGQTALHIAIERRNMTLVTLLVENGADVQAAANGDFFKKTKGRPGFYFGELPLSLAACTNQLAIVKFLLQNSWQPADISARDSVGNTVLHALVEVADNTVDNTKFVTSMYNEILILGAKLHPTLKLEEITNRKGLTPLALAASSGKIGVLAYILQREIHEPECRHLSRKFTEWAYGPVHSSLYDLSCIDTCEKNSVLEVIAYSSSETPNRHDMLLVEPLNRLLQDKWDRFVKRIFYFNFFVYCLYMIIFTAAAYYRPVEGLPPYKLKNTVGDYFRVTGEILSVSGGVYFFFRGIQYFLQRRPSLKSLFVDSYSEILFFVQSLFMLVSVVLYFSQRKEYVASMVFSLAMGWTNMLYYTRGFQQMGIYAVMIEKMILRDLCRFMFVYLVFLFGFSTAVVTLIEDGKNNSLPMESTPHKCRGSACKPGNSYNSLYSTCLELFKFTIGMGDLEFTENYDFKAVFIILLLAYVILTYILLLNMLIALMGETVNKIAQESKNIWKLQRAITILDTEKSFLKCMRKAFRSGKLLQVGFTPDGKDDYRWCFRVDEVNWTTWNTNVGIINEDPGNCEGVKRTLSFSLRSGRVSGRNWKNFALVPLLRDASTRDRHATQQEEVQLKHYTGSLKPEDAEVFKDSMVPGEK", "experiment": "whole-cell patch clamp, HEK cells stably expressing rTRPV1", "assay_type": "cell-based", "quoted_text": "To determine the broad-spectrum specificity of VUAA1, the inventors tested VUAA1 on another non-selective cation channel, transient receptor potential vanilloid receptor 1 (TRPV1) (Caterina, 1997; Bohlen, 2010)."}}}
{"smiles": "CCc1ccc(NC(=O)CSc2nnc(-c3cccnc3)n2CC)cc1", "note": "[VUAA1]", "values": [{"measurement": "Ca2+ imaging response", "setting": "AgORco+AgOR10 [1]", "result": "concentration-dependent responses"}, {"measurement": "whole-cell currents", "setting": "AgORco+AgOR10 [2]; clamped at −60 mV", "result": "concentration-dependent inward currents"}, {"measurement": "concentration producing inward currents", "setting": "AgORco+AgOR10 [2]; whole-cell", "result": "−5.0", "unit": "log M"}, {"measurement": "whole-cell currents", "setting": "DmOR83b", "result": "robust inward currents"}, {"measurement": "whole-cell currents", "setting": "HvOR2", "result": "robust inward currents"}, {"measurement": "whole-cell currents", "setting": "[3]", "result": "did not elicit currents"}]}
